24 compounds from patent publication US20240208968A1, “ALPHA V BETA 6 AND ALPHA V BETA 1 INTEGRIN INHIBITORS AND USES THEREOF” (DiCE Molecules SV, Inc., priority 2021, published 2024) can be followed below.

In one assay the target is αvβ1 (Homo sapiens, UniProt P05556+P06756). The experiment in a line: Solid Phase Integrin αvβ1 Assay. In kind it is binding. The essentials: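 Wells coated with 1 µg/mL recombinant TGFb1-LAP and blocked with 2% BSA/TBST, 1 mM MnCl2; αvβ1 (added at 0.2 µg/mL) and compound incubated 90 min at room temperature. Bound integrin detected by streptavidin-HRP (20 min) and TMB after Mn-containing washes; IC50 by four-parameter logistic fit.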

In another assay the target is αvβ6 (Homo sapiens, UniProt P06756+P18564). The experiment in a line: Solid Phase Integrin αvβ6 Assay. In kind it is binding. The essentials:
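Plates coated with 1 μg/mL recombinant TGFb1-LAP; compounds and αvβ6 (0.2 μg/mL diluted stock) incubated 1 h at room temperature in 2% BSA/TBST with 1 mM MnCl2. Bound integrin detected with streptavidin-HRP and TMB; IC50 from four-parameter logistic fits.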

Structures can show the parent of a compound that is named as a salt.

Sequence of αvβ1 (P06756 31-992 limits assumed): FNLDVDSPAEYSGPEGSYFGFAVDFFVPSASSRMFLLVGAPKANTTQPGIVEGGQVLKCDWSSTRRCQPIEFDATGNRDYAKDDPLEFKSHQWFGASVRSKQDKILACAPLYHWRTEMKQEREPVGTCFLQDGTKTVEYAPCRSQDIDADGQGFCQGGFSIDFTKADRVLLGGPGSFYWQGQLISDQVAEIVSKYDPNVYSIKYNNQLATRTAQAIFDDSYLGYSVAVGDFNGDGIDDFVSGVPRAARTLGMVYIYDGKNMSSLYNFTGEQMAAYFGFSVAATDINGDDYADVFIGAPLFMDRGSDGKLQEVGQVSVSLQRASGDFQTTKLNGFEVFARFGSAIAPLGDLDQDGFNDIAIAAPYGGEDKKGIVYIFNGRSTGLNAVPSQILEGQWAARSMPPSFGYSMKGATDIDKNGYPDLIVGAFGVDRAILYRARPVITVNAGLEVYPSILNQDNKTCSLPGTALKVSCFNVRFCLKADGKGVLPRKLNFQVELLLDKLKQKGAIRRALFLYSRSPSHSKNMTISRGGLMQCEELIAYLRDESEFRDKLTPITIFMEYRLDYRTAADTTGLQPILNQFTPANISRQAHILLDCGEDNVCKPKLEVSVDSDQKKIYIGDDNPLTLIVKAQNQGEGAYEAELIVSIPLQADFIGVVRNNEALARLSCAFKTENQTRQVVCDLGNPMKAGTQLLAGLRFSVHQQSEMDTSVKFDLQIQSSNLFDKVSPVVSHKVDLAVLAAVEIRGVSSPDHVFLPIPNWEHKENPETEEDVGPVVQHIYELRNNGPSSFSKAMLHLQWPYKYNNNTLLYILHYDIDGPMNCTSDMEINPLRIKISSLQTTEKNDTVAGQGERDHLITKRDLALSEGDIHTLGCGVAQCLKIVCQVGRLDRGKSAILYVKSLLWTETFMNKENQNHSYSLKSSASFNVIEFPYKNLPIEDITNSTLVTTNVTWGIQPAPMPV
Sequence of αvβ1 (P05556 21-728 limits assumed): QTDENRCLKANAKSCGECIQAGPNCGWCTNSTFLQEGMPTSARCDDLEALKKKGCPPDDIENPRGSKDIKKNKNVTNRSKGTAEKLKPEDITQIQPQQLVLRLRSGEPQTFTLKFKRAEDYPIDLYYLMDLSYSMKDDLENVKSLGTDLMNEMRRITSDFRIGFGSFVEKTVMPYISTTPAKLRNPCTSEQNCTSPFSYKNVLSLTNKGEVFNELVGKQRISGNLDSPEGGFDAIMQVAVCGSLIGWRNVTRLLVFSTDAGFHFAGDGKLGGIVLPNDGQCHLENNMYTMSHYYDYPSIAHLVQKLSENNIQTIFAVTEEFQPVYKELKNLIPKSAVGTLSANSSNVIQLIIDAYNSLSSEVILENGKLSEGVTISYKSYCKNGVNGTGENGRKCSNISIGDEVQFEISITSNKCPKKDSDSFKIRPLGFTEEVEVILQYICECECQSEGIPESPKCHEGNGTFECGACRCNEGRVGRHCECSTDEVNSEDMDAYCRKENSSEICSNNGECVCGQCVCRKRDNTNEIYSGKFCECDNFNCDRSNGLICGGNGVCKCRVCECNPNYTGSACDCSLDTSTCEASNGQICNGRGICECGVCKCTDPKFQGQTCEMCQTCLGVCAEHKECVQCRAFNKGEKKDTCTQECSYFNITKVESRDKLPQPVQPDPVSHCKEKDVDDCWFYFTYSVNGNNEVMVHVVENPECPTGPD
Sequence of αvβ6 (P06756 31-992 limits assumed): as the sequence (P06756 31-992 limits assumed) above
Sequence of αvβ6 (P18564 22-707 limits assumed): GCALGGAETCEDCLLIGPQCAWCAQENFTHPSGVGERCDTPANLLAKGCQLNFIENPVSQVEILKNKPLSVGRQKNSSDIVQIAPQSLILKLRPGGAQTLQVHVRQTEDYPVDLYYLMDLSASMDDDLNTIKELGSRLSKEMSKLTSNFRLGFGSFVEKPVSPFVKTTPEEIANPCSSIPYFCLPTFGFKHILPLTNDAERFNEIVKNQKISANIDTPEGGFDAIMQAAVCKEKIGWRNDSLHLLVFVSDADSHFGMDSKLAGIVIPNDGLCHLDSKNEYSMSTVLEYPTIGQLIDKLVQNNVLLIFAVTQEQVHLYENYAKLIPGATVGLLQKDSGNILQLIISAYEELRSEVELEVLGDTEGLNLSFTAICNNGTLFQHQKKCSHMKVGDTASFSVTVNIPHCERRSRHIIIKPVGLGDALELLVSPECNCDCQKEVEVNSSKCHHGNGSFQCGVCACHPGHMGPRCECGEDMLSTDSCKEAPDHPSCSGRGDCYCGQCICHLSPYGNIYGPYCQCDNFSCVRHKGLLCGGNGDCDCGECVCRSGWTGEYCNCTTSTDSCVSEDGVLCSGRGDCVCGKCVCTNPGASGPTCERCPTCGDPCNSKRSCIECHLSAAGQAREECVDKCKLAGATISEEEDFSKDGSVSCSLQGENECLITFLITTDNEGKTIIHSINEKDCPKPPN

In the case of `Cc1csc2c(N[C@@H](CNC(=O)[C@@H]3CCCN(CCCc4ccc5c(n4)NCCC5)C3)C(=O)O)ncnc12` [Compound 277, (2S)-2-[(7-methylthieno[3,2-d]pyrimidin-4-yl)amino]-3-[[(3R)-1-[3-(5,6,7,8-tetrahydro-1,8-naphthyridin-2-yl)propyl]piperidine-3-carbonyl]amino]propanoic acid], the IC50 on αvβ1 and against αvβ6 was less than 100 nM throughout.
Take `O=C(NC[C@H](Nc1ncnc2cc(F)c(F)cc12)C(=O)O)[C@@H]1CCCN(CCCc2ccc3c(n2)NCCC3)C1` [Compound 278, (2S)-2-[(6,7-difluoroquinazolin-4-yl)amino]-3-[[(3R)-1-[3-(5,6,7,8-tetrahydro-1,8-naphthyridin-2-yl)propyl]piperidine-3-carbonyl]amino]propanoic acid]: the IC50 against αvβ1 and on αvβ6 was less than 100 nM throughout.
Turning to `O=C(NC[C@H](Nc1ncnc2sccc12)C(=O)O)[C@@H]1CCCN(CCCc2ccc3c(n2)NCCC3)C1` [Compound 279, (S)-3-((R)-1-(3-(5,6,7,8-tetrahydro-1,8-naphthyridin-2-yl)propyl)piperidine-3-carboxamido)-2-(thieno[2,3-d]pyrimidin-4-ylamino)propanoic acid], the IC50 against αvβ1 and against αvβ6 was less than 100 nM each time.
`Cc1csc2ncnc(N[C@@H](CNC(=O)[C@@H]3CCCN(CCCc4ccc5c(n4)NCCC5)C3)C(=O)O)c12` [Compound 280, (S)-2-((5-methylthieno[2,3-d]pyrimidin-4-yl)amino)-3-((R)-1-(3-(5,6,7,8-tetrahydro-1,8-naphthyridin-2-yl)propyl)piperidine-3-carboxamido)propanoic acid]: the IC50 against αvβ1 and against αvβ6 was less than 100 nM each time.
Turning to `O=C(NC[C@H](Nc1nc2ccccc2s1)C(=O)O)[C@@H]1CCCN(CCCc2ccc3c(n2)NCCC3)C1` [Compound 281, (2S)-2-(1,3-benzothiazol-2-ylamino)-3-[[(3R)-1-[3-(5,6,7,8-tetrahydro-1,8-naphthyridin-2-yl)propyl]piperidine-3-carbonyl]amino]propanoic acid], the IC50 at αvβ1 and against αvβ6 was less than 100 nM in each case.
On to `O=C(NC[C@H](Nc1ncnc2cc(C(F)(F)F)ccc12)C(=O)O)[C@@H]1CCCN(CCCc2ccc3c(n2)NCCC3)C1` [Compound 282, (S)-3-((R)-1-(3-(5,6,7,8-tetrahydro-1,8-naphthyridin-2-yl)propyl)piperidine-3-carboxamido)-2-((7-(trifluoromethyl)quinazolin-4-yl)amino)propanoic acid hydrochloride], for which the IC50 against αvβ1 and on αvβ6 was less than 100 nM throughout.
Take `O=C(NC[C@H](Nc1cc(C(F)(F)F)ncn1)C(=O)O)[C@@H]1CCCN(CCCc2ccc3c(n2)NCCC3)C1` [Compound 283, (2S)-3-[[(3R)-1-[3-(5,6,7,8-tetrahydro-1,8-naphthyridin-2-yl)propyl]piperidine-3-carbonyl]amino]-2-[[6-(trifluoromethyl)pyrimidin-4-yl]amino]propanoic acid]: the IC50 against αvβ1 and against αvβ6 was less than 100 nM in each case.
For `O=C(NC1CCCCC1)N[C@@H](CNC(=O)[C@@H]1CCCN(CCCc2ccc3c(n2)NCCC3)C1)C(=O)O` [Compound 284, (S)-2-(3-cyclohexylureido)-3-((R)-1-(3-(5,6,7,8-tetrahydro-1,8-naphthyridin-2-yl)propyl)piperidine-3-carboxamido)propanoic acid], the IC50 at αvβ1 and on αvβ6 was less than 100 nM in each case.
`O=C(N[C@@H](CNC(=O)[C@@H]1CCCN(CCCc2ccc3c(n2)NCCC3)C1)C(=O)O)C1CC2CCC1CC2` (stereo partly drawn) [Compound 285, (2S)-2-(bicyclo[22.2]octane-2-carboxamido)-3-((R)-1-(3-(5,6,7,8-tetrahydro-1,8-naphthyridin-2-yl)propyl)piperidine-3-carboxamido)propanoic acid]: the IC50 against αvβ1 and against αvβ6 was less than 100 nM throughout.
With `O=C(O)C[C@H](NC(=O)[C@H]1CCCN(C(=O)CCc2ccc3c(n2)NCCC3)C1)c1ccccc1` [Compound 286, (S)-3-phenyl-3-((S)-1-(3-(5,6,7,8-tetrahydro-1,8-naphthyridin-2-yl)propanoyl)piperidine-3-carboxamido)propanoic acid hydrochloride], the IC50 against αvβ1 and against αvβ6 was greater than 1000 nM each time.
As to `O=C(O)C[C@H](NC(=O)[C@H]1CCCN(CCCCc2ccc3c(n2)NCCC3)C1)c1ccccc1` [Compound 287, (S)-3-phenyl-3-((S)-1-(4-(5,6,7,8-tetrahydro-1,8-naphthyridin-2-yl)butyl)piperidine-3-carboxamido)propanoic acid], the IC50 on αvβ1 and at αvβ6 was greater than 1000 nM in each case.
On to `O=C(O)C[C@H](NC(=O)[C@@H]1CCCN(CCCCc2ccc3c(n2)NCCC3)C1)c1ccccc1` [Compound 288, (S)-3-phenyl-3-((R)-1-(4-(5,6,7,8-tetrahydro-1,8-naphthyridin-2-yl)butyl)piperidine-3-carboxamido)propanoic acid hydrochloride], for which the IC50 (as a rule, the concentration needed to halve the response being measured) on αvβ1 is 100 to 1000 nM; against αvβ6, less than 100 nM.
`O=C(O)C[C@H](NC(=O)[C@@H]1CCCN(C(=O)CCc2ccc3c(n2)NCCC3)C1)c1ccccc1` [Compound 289, (S)-3-phenyl-3-((R)-1-(3-(5,6,7,8-tetrahydro-1,8-naphthyridin-2-yl)propanoyl)piperidine-3-carboxamido)propanoic acid hydrochloride]: the IC50 at αvβ1 and at αvβ6 was 100 to 1000 nM each time.
On to `O=C(O)C[C@H](NC(=O)[C@@H]1CCCN(CCc2ccc3c(n2)NCCC3)C1)c1ccccc1` [Compound 290, (S)-3-phenyl-3-((R)-1-(2-(5,6,7,8-tetrahydro-1,8-naphthyridin-2-yl)ethyl)piperidine-3-carboxamido)propanoic acid], for which the figures for the IC50 on αvβ1 and against αvβ6 were greater than 1000 nM and 100 to 1000 nM, respectively.
The matching figures for `O=C(O)C[C@H](NC(=O)[C@@H]1CN(CCCc2ccc3c(n2)NCCC3)CC(F)(F)C1)c1ccccc1` [Compound 291-A, (3S)-3-(5,5-difluoro-1-(3-(5,6,7,8-tetrahydro-1,8-naphthyridin-2-yl)propyl)piperidine-3-carboxamido)-3-phenylpropanoic acid]: 100 to 1000 nM and less than 100 nM.
As to `O=C(O)C[C@H](NC(=O)[C@H]1CN(CCCc2ccc3c(n2)NCCC3)CC(F)(F)C1)c1ccccc1` [Compound 291-B, (3S)-3-(5,5-difluoro-1-(3-(5,6,7,8-tetrahydro-1,8-naphthyridin-2-yl)propyl)piperidine-3-carboxamido)-3-phenylpropanoic acid], the IC50 at αvβ1 and against αvβ6 was 100 to 1000 nM in each case.
As to `O=C(O)C[C@H](NC[C@@H]1CCCN(CCCc2ccc3c(n2)NCCC3)C1)c1ccccc1` [Compound 292, (S)-3-phenyl-3-(S)-1-(3-(5,6,7,8-tetrahydro-1,8-naphthyridin-2-yl)propyl)piperidin-3-yl)methyl)amino)propanoic acid hydrochloride], the IC50 against αvβ1 and at αvβ6 was greater than 1000 nM in each case.
Turning to `CN(C[C@@H]1CCCN(CCCc2ccc3c(n2)NCCC3)C1)[C@@H](CC(=O)O)c1ccccc1` [Compound 293, (S)-3-(methyl(((R)-1-(3-(5,6,7,8-tetrahydro-1,8-naphthyridin-2-yl)propyl)piperidin-3-yl)methyl)amino)-3-phenylpropanoic acid hydrochloride], the IC50 at αvβ1 and on αvβ6 was greater than 1000 nM in each case.
`O=C(O)C[C@H](OC[C@@H]1CCCN(CCCc2ccc3c(n2)NCCC3)C1)c1ccccc1` [Compound 294, (S)-3-phenyl-3-(((R)-1-(3-(5,6,7,8-tetrahydro-1,8-naphthyridin-2-yl)propyl)piperidin-3-yl)methoxy)propanoic acid]: the IC50 against αvβ1 and against αvβ6 was greater than 1000 nM in each case.
Take `O=C(O)C[C@H](CN[C@@H]1CCCN(CCCc2ccc3c(n2)NCCC3)C1)c1ccccc1` [Compound 295, (S)-3-phenyl-4-(((R)-1-(3-(5,6,7,8-tetrahydro-1,8-naphthyridin-2-yl)propyl)piperidin-3-yl)amino)butanoic acid]: the IC50 against αvβ1 and on αvβ6 was less than 100 nM throughout.
Turning to `CN(C[C@@H](CC(=O)O)c1ccccc1)[C@@H]1CCCN(CCCc2ccc3c(n2)NCCC3)C1` [Compound 296, (S)-4-(methyl((R)-1-(3-(5,6,7,8-tetrahydro-1,8-naphthyridin-2-yl)propyl)piperidin-3-yl)amino)-3-phenylbutanoic acid], the IC50 on αvβ1 was 100 to 1000 nM; against αvβ6 it was greater than 1000 nM.
Consider `O=C(O)CC(CO[C@@H]1CCCN(CCCc2ccc3c(n2)NCCC3)C1)c1ccccc1` (stereo partly drawn) [Compound 297, 3-phenyl-4-(((R)-1-(3-(5,6,7,8-tetrahydro-1,8-naphthyridin-2-yl)propyl)piperidin-3-yl)oxy)butanoic acid hydrochloride], for which the IC50 at αvβ1 and against αvβ6 was less than 100 nM each time.
For the compound `O=C(O)C[C@H](CO[C@@H]1CCCN(CCCc2ccc3c(n2)NCCC3)C1)c1ccccc1` [Compound 297-A, 3-phenyl-4-(((R)-1-(3-(5,6,7,8-tetrahydro-1,8-naphthyridin-2-yl)propyl)piperidin-3-yl)oxy)butanoic acid], the IC50 at αvβ1 and on αvβ6 was 100 to 1000 nM in each case.
With `O=C(O)C[C@@H](CO[C@@H]1CCCN(CCCc2ccc3c(n2)NCCC3)C1)c1ccccc1` [Compound 297-B, 3-phenyl-4-(((R)-1-(3-(5,6,7,8-tetrahydro-1,8-naphthyridin-2-yl)propyl)piperidin-3-yl)oxy)butanoic acid], the IC50 at αvβ1 and against αvβ6 was less than 100 nM throughout.
